Data set [1] has as its system Staphylococcus aureus (ATCC25923). Briefly: Microtitre plate assay, IC90 for bacterial growth. It counts as cell-based. Conditions: for IC90: Staphylococcus aureus, ATCC25923, 90% inhibitory concentration for bacterial growth, read-out: IC90 STA 25923. Here is the method:
(§1) The bacteria used in this study were grown overnight in flasks containing 100 ml Mueller-Hinton Broth (Becton Dickinson—cat. no. 275730) in sterile de-ionized water, with shaking, at 37° C. Stocks (0.5 ml/tube) were stored at 70° C. until use. Bacteria titrations were performed in microtiter plates and colony forming units (CFUs) were determined. In general, an inoculum level of approximately 100 CFUs was used for susceptibility testing.
(§2) Anti bacterial Susceptibility Testing: IC90 Determination
(§3) Flat-bottom, sterile 96-well plastic microtiter plates were filled with 180 μl of sterile deionized water, supplemented with 0.25% BSA. Subsequently, stock solutions (7.8× final test concentration) of compounds were added in 45 μl volumes in column 2. Serial five-fold dilutions (45 μl in 180 μl) were made directly in the microtiter plates from column 2 to reach column 11. Untreated control samples with (column 1) and without (column 12) inoculum were included in each microtiter plate. Depending on the bacteria type, approximately 10 to 60 CFU per well of bacteria inoculum (100 TCID50), in a volume of 100 μl in 2.8× Mueller-Hinton broth medium, was added to the rows A to H, except column 12. The same volume of broth medium without inoculum was added to column 12 in row A to H. The cultures were incubated at 37° C. for 24 hours under a normal atmosphere (incubator with open air valve and continuous ventilation). At the end of incubation, one day after inoculation, the bacterial growth was quantitated fluorometrically. Therefore resazurin (0.6 mg/ml) was added in a volume of 20 μl to all wells 3 hours after inoculation, and the plates were re-incubated overnight. A change in colour from blue to pink indicated the growth of bacteria. The fluorescence was read in a computer-controlled fluorometer (Cytofluor Biosearch) at an excitation wavelength of 530 nm and an emission wavelength of 590 nm. The % growth inhibition achieved by the compounds was calculated according to standard methods. The IC90 (expressed in μg/ml) was defined as the 90% inhibitory concentration for bacterial growth.

Data set [2] deals with Pseudomonas aeruginosa (ATCC27853). Briefly: Microtitre plate assay, IC90 for bacterial growth. Conditions: for IC90 PAE 27853: 90% inhibitory concentration for bacterial growth; for IC90: Pseudomonas aeruginosa, ATCC27853, 90% inhibitory concentration for bacterial growth, read-out: IC90 PAE 27853. Type of data set: cell-based. On the procedure: as §1, §2, §3
Data set [3] relates to Streptococcus pneumoniae (ATCC6305). Briefly: Microtitre plate assay, IC90 for bacterial growth. It counts as cell-based. The settings on record: for IC90 SPN 6305: 90% inhibitory concentration for bacterial growth; for IC90: Streptococcus pneumoniae, ATCC6305, 90% inhibitory concentration for bacterial growth, read-out: IC90 SPN 6305. Here is the method: as §1, §2, §3
For data set [4], the system named is Listeria monocytogenes (ATCC49594). Briefly: Microtitre plate assay, IC90 for bacterial growth. Type of data set: cell-based. Here is the method:
as §1, §2, §3

In data set [5] the test system is Bacillus subtilis (ATCC43639). Briefly: Microtitre plate assay, IC90 for bacterial growth. It counts as cell-based. Conditions: for IC90: Bacillus subtilis, ATCC43639, 90% inhibitory concentration for bacterial growth, read-out: IC90 BSU 43639. On the procedure: as §1, §2, §3
In data set [6] the test system is Staphylococcus aureus (ATCC29213). Briefly: Microtitre plate assay, IC90 for bacterial growth. It counts as cell-based. Conditions: 90% inhibitory concentration for bacterial growth, 24 hours at 37° C., resazurin; for IC90: Staphylococcus aureus, ATCC29213, 24 h, read-out: IC90 STA 29213. Here is the method:
as §1, §2, §3
A general note: Resazurin is reduced to fluorescent resorufin, in cell work by metabolically active cells.

Data set [7] deals with methicilline resistant Staphylococcus aureus (MRSA) (a clinical isolate from the University of Antwerp). Briefly: Microtitre plate assay, IC90 for bacterial growth. Type of data set: cell-based. The settings on record: 90% inhibitory concentration for bacterial growth; for IC90: Staphylococcus aureus, MRSA, read-out: IC90 STA RMETHIC. On the procedure:
as §1, §2, §3

For data set [8], the system named is Enterococcus faecalis (ATCC29212). Briefly: Microtitre plate assay, IC90 for bacterial growth. Type of data set: cell-based. The settings on record: for IC90 EFA 29212: 90% inhibitory concentration for bacterial growth; for IC90: Enterococcus faecalis, ATCC29212, 90% inhibitory concentration for bacterial growth, read-out: IC90 EFA 29212. Here is the method: as §1, §2, §3

The subject of data set [9] is Streptococcus pyogens (ATCC8668). Briefly: Microtitre plate assay, IC90 for bacterial growth. Type of data set: cell-based. Conditions: for IC90 SPY 8668: 90% inhibitory concentration for bacterial growth; for IC90: Streptococcus, ATCC8668, 90% inhibitory concentration for bacterial growth, read-out: IC90 SPY 8668. Here is the method: as §1, §2, §3
Where [10] appears, read: 90% inhibitory concentration for bacterial growth.

In brackets after ≈: the same amount, converted by molar mass.

Take `COc1nc2ccc(-c3ccccc3)cc2cc1C(c1ccccc1)C1(c2cccc3ccccc23)CCN(C)CO1` (single isomer, unassigned) [Compound 2]: the “IC90 STA 25923” value in data set [1] (setting [10]) came out at 55.1 µg/mL (≈ 100 µM). In addition, in [2], the “IC90 PAE 27853” value came out at 55.1 µg/mL (≈ 100 µM). Further, in [3], the “IC90 SPN 6305” value came to 5.5 µg/mL (≈ 9.99 µM). The “IC90 LMO 49594” value in [4] (setting [10]) is 55.1 µg/mL (≈ 100 µM). The “IC90 BSU 43639” value in data set [5] (setting [10]) was found to be 55.1 µg/mL (≈ 100 µM). Further, the “IC90 STA 29213” value in [6] amounted to 55.1 µg/mL (≈ 100 µM). Moreover, the “IC90 STA RMETHIC” value in data set [7] was found to be 55.1 µg/mL (≈ 100 µM). The “IC90 EFA 29212” value in data set [8] was 55.1 µg/mL (≈ 100 µM). Also, the “IC90 SPY 8668” value in data set [9] turned out to be 55.1 µg/mL (≈ 100 µM).

As to `COc1nc2ccc(Cl)cc2cc1C(c1ccccc1)C1(c2cccc3ccccc23)CCN(C)CO1` (single isomer, unassigned) [Compound 3], the “IC90 STA 29213” value in [6] was found to be 12.8 µg/mL (≈ 25.1 µM).

`COc1nc2ccc(-c3ccco3)cc2cc1C(c1ccccc1)C1(c2cccc3ccccc23)CCN(C)CO1` (single isomer, unassigned) [Compound 6]: the IC90 in data set [1], in data set [2], in data set [5], in data set [6], in data set [8] and in data set [9] was 13.6 µg/mL (≈ 25.2 µM) in each case. In data set [3], the “IC90 SPN 6305” value was 2.7 µg/mL (≈ 4.99 µM). Besides, the “IC90 STA RMETHIC” value in data set [7] was 54.1 µg/mL (≈ 100 µM).

Take `COc1nc2ccc(Br)cc2cc1C(c1ccccc1)C1(c2cccc3ccccc23)CCN(C)CO1` (single isomer, unassigned) [Compound 7]: the melting point is 108 °C. Further, the “IC90 PAE 27853” value in data set [2] was determined as 13.9 µg/mL (≈ 25.1 µM). In data set [3], the “IC90 SPN 6305” value was 13.9 µg/mL (≈ 25.1 µM). Besides, in data set [6], the “IC90 STA 29213” value was 13.9 µg/mL (≈ 25.1 µM). In [8], the “IC90 EFA 29212” value is 13.9 µg/mL (≈ 25.1 µM). Also, in data set [9], the “IC90 SPY 8668” value turned out to be 13.9 µg/mL (≈ 25.1 µM).

Regarding `COc1nc2ccc(-c3ccccc3)cc2cc1C(c1ccccc1)C1(c2cccc3ccccc23)CCN(C)CO1` (single isomer, unassigned) [Compound 9], the IC90 in data set [1] was 55.1 µg/mL (≈ 100 µM); in data set [2] it was 55.1 µg/mL (≈ 100 µM); in [3], 4.9 µg/mL (≈ 8.9 µM); in data set [4] (Listeria monocytogenes, ATCC49594, 90% inhibitory concentration for bacterial growth, read-out: IC90 LMO 49594), 55.1 µg/mL (≈ 100 µM); in data set [5] it was 55.1 µg/mL (≈ 100 µM); in data set [6], 55.1 µg/mL (≈ 100 µM). For the same compound, the IC90 in [7], in [8] and in data set [9] was 55.1 µg/mL (≈ 100 µM) each time.

In the case of `COc1nc2ccc(Br)cc2cc1C(c1ccc(Cl)cc1)C1(c2cccc3ccccc23)CCN(C)CO1` (single isomer, unassigned) [Compound 13], the IC90 in [2] worked out at 14.8 µg/mL (≈ 25.2 µM); in data set [3] it was 13.2 µg/mL (≈ 22.5 µM); in data set [6], 14.8 µg/mL (≈ 25.2 µM); in data set [8] it was 14.8 µg/mL (≈ 25.2 µM); in data set [9] it was 14.8 µg/mL (≈ 25.2 µM).

`COc1nc2ccc(Br)cc2cc1C(c1ccccc1)C1(c2cccc3ccccc23)CC[N+](C)(C)CO1.[I-]` (single isomer, unassigned) [Compound 17] came in with a melting point of 245 °C. Further, the “IC90 PAE 27853” value in [2] was 2.0 µg/mL. Also, in data set [3], the “IC90 SPN 6305” value was 1.8 µg/mL. For the same compound, in data set [6], the “IC90 STA 29213” value is 1.8 µg/mL. Besides, the “IC90 STA RMETHIC” value in [7] amounted to 2.3 µg/mL. For the same compound, the “IC90 EFA 29212” value in [8] was determined as 1.8 µg/mL. Also, in data set [9], the “IC90 SPY 8668” value turned out to be 1.8 µg/mL.

As for `COc1nc2ccc(Br)cc2cc1C(c1ccccc1)C1(c2cccc3ccccc23)CC[N+](C)(C)CO1.[I-]` (single isomer, unassigned) [Compound 18], the melting point was determined as 228 °C. Moreover, in [2], the IC90 came out at 2 µg/mL. For the same compound, the 90% effect concentration (IC90) in data set [3] came to 1.8 µg/mL. The IC90 in data set [6] amounted to 2.3 µg/mL. In addition, the 90% effect concentration (IC90) in data set [7] came to 2.3 µg/mL. Further, the concentration for an effect of 90% (IC90) in data set [8] was 1.8 µg/mL. Besides, the IC90 in data set [9] worked out at 1.8 µg/mL.

With `COc1nc2ccc(Br)cc2cc1C(c1ccc(Cl)cc1)C1(c2cccc3ccccc23)CCN(C)CO1` (single isomer, unassigned) [Compound 21], the melting point amounted to 201 °C. Moreover, the “IC90 PAE 27853” value in [2] was 14.8 µg/mL (≈ 25.2 µM). Moreover, in data set [3], the “IC90 SPN 6305” value was found to be 14.8 µg/mL (≈ 25.2 µM). In [6], the “IC90 STA 29213” value stood at 14.8 µg/mL (≈ 25.2 µM). Further, in data set [8], the “IC90 EFA 29212” value was 14.8 µg/mL (≈ 25.2 µM). For the same compound, in data set [9], the “IC90 SPY 8668” value was 14.8 µg/mL (≈ 25.2 µM).

Usually IC90 stands for the concentration needed for an effect of 90%. What is called melting point is the temperature, or range, at which the solid turns liquid.
